pIC50: −log10 of the molar value. Active and inactive are the calls of the source. No cut-off for these calls is given here.
Legend:
[1] = test system: HepG2; test: Induction of apoptosis in human HepG2 cells assessed as necrotic cells at 5 uM after 48 hrs by Annexin V-FITC/propidium iodide staining-based flow cytometry (reference value: 0.08%); type: functional
[2] = test system: HepG2; test: Induction of apoptosis in human HepG2 cells assessed as increase in Bid expression levels after 48 hrs by immunofluorescence staining-based high content screening assay; type: functional, cell-based
[3] = test system: HepG2; test: Induction of apoptosis in human HepG2 cells assessed as decrease in Bcl2 protein expression after 48 hrs by immunofluorescence staining-based high content screening assay; type: functional, cell-based
[4] = test system: HepG2; test: Induction of apoptosis in human HepG2 cells assessed as viable cells at 7.5 uM after 8 hrs by Annexin V-FITC/propidium iodide staining-based flow cytometry (reference value: 97.43%); type: functional; conditions: HepG2, 8 h, read-out: Activity
[5] = Drug localization in lysosomes of human HepG2 cells at 7.5 uM after 8 hrs by LysoTracker Red dye-based confocal fluorescence microscopic analysis; type: ADME, subcellular, Lysosome; conditions: hepg2, 8 h
[6] = test system: HepG2; test: Induction of apoptosis in human HepG2 cells assessed as early apoptotic cells at 5 uM after 24 hrs by Annexin V-FITC/propidium iodide staining-based flow cytometry (reference value: 2.07%); type: functional
[7] = test system: HepG2; test: Induction of apoptosis in human HepG2 cells assessed as viable cells at 2.5 uM after 24 hrs by Annexin V-FITC/propidium iodide staining-based flow cytometry (reference value: 96.97%); type: functional; conditions: HepG2, 24 h, read-out: Activity
[8] = test system: HepG2; test: Induction of apoptosis in human HepG2 cells assessed as viable cells at 5 uM after 48 hrs by Annexin V-FITC/propidium iodide staining-based flow cytometry (reference value: 96.67%); type: functional; conditions: HepG2, 48 h, read-out: Activity
[9] = test system: Mus musculus; test: Toxicity in Kunming mouse xenografted with […] H22 cells assessed as effect on liver weight index at 30 mg/kg, iv administered for 7 consecutive days; type: organism-based; conditions: in vivo
[10] = test system: HepG2; test: Induction of autophagy in human HepG2 cells assessed as upregulation of beclin1 expression at 5 uM in presence of autophagy inhibitor 3-MA by Western blot analysis; type: functional, cell-based
[11] = test system: HepG2; test: Induction of apoptosis in human HepG2 cells assessed as late apoptotic cells at 5 uM after 24 hrs by Annexin V-FITC/propidium iodide staining-based flow cytometry (reference value: 0.88%); type: functional
[12] = test system: HeLa; test: Antiproliferative activity against human HeLa cells after 48 hrs by MTT assay; type: functional, cell-based
[13] = test system: HepG2; test: Cytotoxicity in human HepG2 cells assessed as gain in lysosomal mass/pH after 48 hrs by LysoTracker Red dye-based fluorescence assay; type: functional, cell-based
[14] = test system: HepG2; test: Induction of autophagy in human HepG2 cells assessed as increase in LC3-2 expression at 5 uM in presence of autophagy inhibitor 3-MA by Western blot analysis; type: functional, cell-based
[15] = test system: HepG2; test: Induction of autophagy in human HepG2 cells assessed as upregulation of beclin1 expression at 5 uM by Western blot analysis; type: functional, cell-based
[16] = test system: HepG2; test: Induction of apoptosis in human HepG2 cells assessed as early apoptotic cells at 2.5 uM after 36 hrs by Annexin V-FITC/propidium iodide staining-based flow cytometry (reference value: 2.08%); type: functional
[17] = test system: HepG2; test: Induction of apoptosis in human HepG2 cells assessed as viable cells at 5 uM after 36 hrs by Annexin V-FITC/propidium iodide staining-based flow cytometry (reference value: 96.6%); type: functional; conditions: HepG2, 36 h, read-out: Activity
[18] = test system: HepG2; test: Induction of apoptosis in human HepG2 cells assessed as viable cells at 7.5 uM after 48 hrs by Annexin V-FITC/propidium iodide staining-based flow cytometry (reference value: 96.67%); type: functional; conditions: HepG2, 48 h, read-out: Activity
[19] = test system: HepG2; test: Induction of ROS generation in human HepG2 cells after 48 hrs by DCFH-DA staining-based fluorescence assay; type: functional, cell-based
[20] = test system: HepG2; test: Induction of apoptosis in human HepG2 cells assessed as viable cells at 7.5 uM after 24 hrs by Annexin V-FITC/propidium iodide staining-based flow cytometry (reference value: 96.97%); type: functional; conditions: HepG2, 24 h, read-out: Activity
[21] = target: c-Jun N-terminal kinase, JNK (Homo sapiens) (UniProt P45983+P53779+P45984); test: Induction of JNK phosphorylation in human HepG2 cells after 48 hrs by immunofluorescence staining-based high content screening assay; type: cell-based
[22] = test system: HepG2; test: Induction of apoptosis in human HepG2 cells assessed as late apoptotic cells at 5 uM after 48 hrs by Annexin V-FITC/propidium iodide staining-based flow cytometry (reference value: 0.95%); type: functional
[23] = test system: HepG2; test: Induction of apoptosis in human HepG2 cells assessed as early apoptotic cells at 2.5 uM after 48 hrs by Annexin V-FITC/propidium iodide staining-based flow cytometry (reference value: 1.30%); type: functional
[24] = target: MAP kinase p38 (Homo sapiens) (UniProt O15264+Q15759+Q16539+P53778); test: Induction of p38 phosphorylation in human HepG2 cells after 48 hrs by immunofluorescence staining-based high content screening assay; type: cell-based
[25] = test system: HepG2; test: Induction of apoptosis in human HepG2 cells assessed as caspase 3 activation after 48 hrs by immunofluorescence staining-based high content screening assay; type: functional, cell-based
[26] = test system: HepG2; test: Induction of apoptosis in human HepG2 cells assessed as necrotic cells at 7.5 uM after 8 hrs by Annexin V-FITC/propidium iodide staining-based flow cytometry (reference value: 0.40%); type: functional
[27] = test system: H22; test: Antitumor activity against […] xenografted in Kunming mouse assessed as tumor growth inhibition at 40 mg/kg, iv for 7 consecutive days measured on day 16; type: functional; conditions: 384 h, read-out: TGI
[28] = test system: HepG2; test: Induction of apoptosis in human HepG2 cells assessed as late apoptotic cells at 7.5 uM after 48 hrs by Annexin V-FITC/propidium iodide staining-based flow cytometry (reference value: 0.95%); type: functional
[29] = test system: HepG2; test: Induction of apoptosis in human HepG2 cells assessed as late apoptotic cells at 2.5 uM after 24 hrs by Annexin V-FITC/propidium iodide staining-based flow cytometry (reference value: 0.88%); type: functional
[30] = test system: HepG2; test: Induction of apoptosis in human HepG2 cells assessed as necrotic cells at 2.5 uM after 48 hrs by Annexin V-FITC/propidium iodide staining-based flow cytometry (reference value: 0.08%); type: functional
[31] = test system: HepG2; test: Induction of apoptosis in human HepG2 cells assessed as early apoptotic cells at 7.5 uM after 24 hrs by Annexin V-FITC/propidium iodide staining-based flow cytometry (reference value: 2.07%); type: functional
[32] = test system: HepG2; test: Induction of apoptosis in human HepG2 cells assessed as late apoptotic cells at 2.5 uM after 36 hrs by Annexin V-FITC/propidium iodide staining-based flow cytometry (reference value: 1.08%); type: functional
[33] = test system: HepG2; test: Induction of autophagy in human HepG2 cells assessed as formation of autolysosomes at 2.5 to 7.5 uM preincubated cells with 3-MA for 2 hrs followed by compound addition measured after 48 hrs by MDC staining-based assay; type: functional, cell-based
[34] = test system: HCT-116; test: Antiproliferative activity against human HCT116 cells after 48 hrs by MTT assay; type: functional, cell-based; conditions: HCT-116, 48 h
[35] = test system: HepG2; test: Induction of apoptosis in human HepG2 cells assessed as viable cells at 2.5 uM after 36 hrs by Annexin V-FITC/propidium iodide staining-based flow cytometry (reference value: 96.6%); type: functional; conditions: HepG2, 36 h, read-out: Activity

Compound: COc1ccc2cc(-c3oc4c(CNCCCCN)cccc4c(=O)c3OC)ccc2c1Br.Cl.Cl
- Activity [1]: 3.39%
- Activity [2]: Dose-dependent effect
- Activity [3]: Active
- viability at 7.5 µM [4]: 78.5%
- Drug uptake [5]: Not Active
- Activity [6]: 15.76%
- viability at 2.5 µM [7]: 88.7%
- viability at 5 µM [8]: 60.4%
- Activity [9]: Non-Toxic
- Activity [10]: inactive
- Activity [11]: 2.03%
- pIC50 [12]: 5.23
- Activity [13]: Dose-dependent effect
- Activity [14]: inactive
- Activity [15]: Active
- Activity [16]: 6.24%
- viability at 5 µM [17]: 81%
- viability at 7.5 µM [18]: 45.6%
- Activity [19]: Dose-dependent effect
- viability at 7.5 µM [20]: 67.2%
- Activity [21]: Dose-dependent effect
- Activity [22]: 9.87%
- Activity [23]: 21.8%
- Activity [24]: Dose-dependent effect
- Activity [25]: Dose-dependent effect
- Activity [26]: 0.05%
- inhibition in vivo at 40 mg/kg [27]: 69.1%
- Activity [28]: 31.22%
- Activity [29]: 0.88%
- Activity [30]: 0.29%
- Activity [31]: 18.85%
- Activity [32]: 5.89%
- Activity [33]: inactive
- pIC50 [34]: 4.82
- viability at 2.5 µM [35]: 84%

From ChEMBL document CHEMBL4196011, “The lead optimization of the polyamine conjugate of flavonoid with a naphthalene motif: Synthesis and biological evaluation” (Eur J Med Chem, 2018)
